Measured values from BigSolDB 2.1.

C=NCC#N
solubility (mole fraction)
Settings | 278.15 K | 283.15 K | 288.15 K | 293.15 K | 298.15 K | 303.15 K | 308.15 K | 313.15 K | 318.15 K | 323.15 K
in ethanol | 0.00175 | 0.00213 | 0.00253 | 0.00303 | 0.00357 | 0.00424 | 0.00501 | 0.00595 | 0.00695 | 0.00814
in methanol | 0.00436 | 0.00516 | 0.00624 | 0.00747 | 0.00894 | 0.0107 | 0.0125 | 0.0145 | 0.0169 | 0.0196
in n-butanol | 0.000479 | 0.000578 | 0.000686 | 0.000819 | 0.000985 | 0.00115 | 0.00139 | 0.00162 | 0.00191 | 0.00224
in n-propanol | 0.00099 | 0.00125 | 0.00151 | 0.00183 | 0.00222 | 0.00266 | 0.00315 | 0.0037 | 0.00427 | 0.00499
in water | 0.00083 | 0.000998 | 0.00119 | 0.00143 | 0.00171 | 0.00198 | 0.00235 | 0.00274 | 0.0032 | 0.00371
